The source of these data is publication PMC4365270 (Cancer Chemotherapy and Pharmacology, 2015).

Data set [1] can be described thus: Safety/tolerability: AE, ADR, DLT in patients with advanced cancer. Type of data set: in vivo. From the text:
This was a multicenter, uncontrolled, open-label, dose-escalation study on DEBIO1143 in patients with advanced cancer. It employed an accelerated titration design for dose escalation with 100 % dose increments in consecutively enrolled single patients until drug-related grade-2 toxicity was observed during the initial treatment cycle (until day 28 or day 21 as per protocol amendment). If this was the case, cohort size was expanded to three patients and dosing increment was reduced to 50 % of the last dose. Dose escalation was to be stopped at the MTD which was considered exceeded if at any dose level more than one patient experienced dose-limiting toxicity (DLT) during the first treatment cycle. DLT was defined as any of the following: (a) non-hematological toxicity of grade ≥3 (excluding nausea, vomiting, diarrhea unless not controlled by maximal antiemetic/diarrheal therapy for >24 h); (b) anemia or neutropenia of grade ≥3 or thrombocytopenia of grade 4 or any grade if associated with clinically significant bleeding; (c) any AE resulting in dose delay or reduction; (d) any toxicity considered dose-limiting by the investigator. If only one out of the three patients of a cohort experienced drug-related DLT, the cohort was expanded by another three patients to be treated at the same dose level. If none of these additional patients experienced DLT, the dose escalation by 50 %, rounded down to the nearest capsule strength combination, continued in the next cohort of three patients.
The incidence of AE, ADR, and DLT was recorded at all scheduled visits (on days 1, 15, and 28 of each cycle and additionally on days 5, 8, and 22 of cycle 1) and graded according to the Common Terminology Criteria for Adverse Events, version 4.0 of the National Cancer Institute. Moreover, safety laboratory, 12-lead ECG, vital sign measurements, and physical examinations were performed.

The test system of data set [2] is various human cancer cell lines. Also on record: method as in PMID 21264751, PMID 22669575. Conditions: in vitro; cited from earlier work.
Data set [3] deals with caspase-3 generated cytokeratin-18 fragments (M30). The experiment in a line: Plasma M30 ELISA. In kind it is in vivo, human. Conditions: day 5, p < 0.0033. Here is the method:
cIAP-1 levels were measured in tumor tissue and surrogate tissue as available. Peripheral blood mononuclear cells (PBMCs) were analyzed for DEBIO1143-induced cIAP-1 degradation. Plasma native cytokeratin-18 ([…]) or caspase-3 generated cytokeratin-18 fragments (M30), interleukin 8 (IL8), chemokine ligand 2 (CCL2, MCP1), and tumor necrosis factor α (TNFα) were measured by ELISA as markers of epithelial cell death and inflammation on days 1 (predose, 1, 3, 6, and 12 h postdose), 2, and 5. […] For the detection of cIAP-1 in paraffin-embedded human tissue, a validated immunohistochemical (IHC) assay was used. DEBIO1143-induced cIAP-1 degradation was measured in PBMCs using Western blot. Plasma biomarkers were measured through commercial ELISAs. All laboratory analyses were performed by MPI Research, Inc. (PK) and Mosaic Laboratory, LLC (PD).

The structures appear in SMILES notation. “Also recorded” adds a separate entry of the source.

Take `CN[C@@H](C)C(=O)N[C@H]1CN(C(=O)CC(C)C)CC[C@H]2CC[C@@H](C(=O)NC(c3ccccc3)c3ccccc3)N2C1=O` [DEBIO1143]: the “Deaths during the study” value in data set [1] (N=31) is listed as “No patient died”. In data set [1] (human, in vivo), the “Dose dependence of AEs” value was “neither incidence nor severity increased with dose”, the Dose-limiting toxicity observed entry is “grade 3 reversible ALT elevation”, the “Grade 4–5 treatment-related AE” value is reported as “no grade 4–5 treatment-related AE” and the “Number of AEs” value turned out to be 242. For the same compound, in data set [1] (human, in vivo), the “Number of SAEs” value is 13; the “Number of dose-limiting toxicities (DLT)” value is recorded as “one”; the “SAEs related to study drug” value is on record as “none of which was considered related to study drug”; the “Safety laboratory, ECG, vital signs, body weight, ECOG performance status” value is recorded as “No clinically meaningful trends”. For the same compound, the “Maximum tolerated dose (MTD)” value in data set [1] (oral, days 1–5 every 2 or 3 weeks, up to 900 mg) is “No MTD was found; also recorded: not reached”. In addition, the Cell growth entry in data set [2] is given as “inhibit cell growth”. For the same compound, in data set [3], the “Plasma level of M30” value was “increased significantly”.
